Experimental data as given in article PMC8262591 (Brain research bulletin, 2020).
“And” between values parts separate entries of the source, which are not always exact repeats. Equal entries are not always repeated. Structures can show the parent of a compound that is named as a salt.

Columns and labels:
[1] = test system: Adult male Wistar rats; test: Tail-flick latency; type: in vivo, rat; conditions: for decrease in potency when moving from i.p. to p.o. route of administration: analgesia, i.p. vs p.o.; for peak analgesia: tail-flick
[2] = test system: brain CYP2D; conditions: seven-day subcutaneous nicotine; ref McMillan and Tyndale, 2015; cited from earlier work
[3] = test system: brain CYP2D; conditions: seven-day subcutaneous nicotine; ref McMillan and Tyndale, 2015; cited from earlier work; remark: listed apart in the source
[4] = test system: brain CYP2D; conditions: 24 hr i.c.v. propranolol pretreatment, pilot study
[5] = test system: brain CYP2D; conditions: 24 hr i.c.v. propranolol pretreatment, pilot microdialysis study, tramadol p.o.
[6] = test system: Adult male Wistar rats; conditions: tramadol 40 mg/kg i.p.; ref Wang et al., 2015; cited from earlier work
[7] = oral tramadol; ref Nobilis et al., 2002, Ong et al., 2005; cited from earlier work

## COc1ccc2c3c1O[C@H]1[C@@H](O)C=C[C@H]4[C@@H](C2)N(C)CC[C@@]341 [codeine]
[1]
  decrease in potency when moving from i.p. to p.o. route of administration: 2.5 – 10 fold

## CN1CC[C@]23c4c5ccc(O)c4O[C@H]2[C@@H](O)C=C[C@H]3[C@H]1C5 [morphine]
[1]
  decrease in potency when moving from i.p. to p.o. route of administration: 2.5 – 10 fold

## CN1CCC[C@H]1c1cccnc1 [nicotine]
[2]
  increase in codeine-induced antinociception, tail-flick reflex AUC0–30 min: 1.6 fold
[3]
  increase in codeine-induced antinociception, hot-plate test AUC: 2.5 fold

## CC(C)NCC(O)COc1cccc2ccccc12 (stereo not drawn) [propranolol, Propranolol hydrochloride]
[4]
  effect on analgesia after tramadol p.o.: increase in analgesia
[5]
  effect on brain levels of tramadol, ODSMT and NDSMT: increased

## COc1cccc(C2(O)CCCCC2CN(C)C)c1 (stereo not drawn) [tramadol, Tramadol hydrochloride]
[1]
  decrease in potency when moving from i.p. to p.o. route of administration: 2.5 – 10 fold and 2.5 fold
[1]; tramadol 40 mg/kg i.p.
  overall analgesic response, AUC 0–60 min: 2840 %MPE*min
  time to peak analgesia: 50 min post-injection
  peak analgesia: 65 % MPE
[1]; tramadol 100 mg/kg p.o.
  peak analgesia: 74 % MPE
[6]
  overall analgesic response, AUC 0–60 min (published): 1740 %MPE*min
  peak analgesia (published): approximately 52 % MPE
  time to peak analgesia (published): 45 min post-injection
[7]
  fraction of a tramadol dose undergoing first-pass metabolism: 30%
